From PubChem BioAssay (NCI)
“And” between values parts separate entries of the source, which are not always exact repeats. Equal values may be shown once.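 Growth conditions: 96-well plates. Treatment: test compound, 48 hours, 5 concentrations. Analysis: linear interpolation between bracketing concentrations; unreached endpoints set to highest concentration. GI50 is the concentration that inhibits growth by half. TGI is the concentration that stops growth completely.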

How the values were obtained:
Assay in all cases: inhibition of tumour cell growth, NCI panel, 48 h
NCI-H522 lung = test system: NCI-H522 lung
CCRF-CEM leukemia = test system: CCRF-CEM leukemia
BT-549 breast = test system: BT-549 breast
PC-3 prostate = test system: PC-3 prostate
SN12C renal = test system: SN12C renal
HL-60(TB) leukemia = test system: HL-60(TB) leukemia
MALME-3M melanoma = test system: MALME-3M melanoma
K-562 leukemia = test system: K-562 leukemia
HOP-92 NSCLC = test system: HOP-92 NSCLC
SK-MEL-28 melanoma = test system: SK-MEL-28 melanoma

CN(C)C(=S)SSC(=S)N(C)C
TGI (NCI-H522 lung): 14.7 µM and 10.4 µM and 8.24 µM
TGI (CCRF-CEM leukemia): 37.2 µM and 5.68 µM
TGI (BT-549 breast): 30.6 µM and 31.3 µM and 28.4 µM
TGI (PC-3 prostate): 26.6 µM and > 100 µM and 32 µM
GI50 (SN12C renal): 14.7 µM
TGI (SN12C renal): 28.7 µM and > 46.4 µM and 54.5 µM
TGI (HL-60(TB) leukemia): 70.6 µM and 9.41 µM and 10.8 µM
GI50 (MALME-3M melanoma): 16.3 µM
TGI (MALME-3M melanoma): 34.7 µM and 50.1 µM and 31 µM
TGI (K-562 leukemia): > 100 µM and 16.5 µM
GI50 (HOP-92 NSCLC): 17.3 µM and 59.5 µM and 18.4 µM
TGI (HOP-92 NSCLC): 42.8 µM and > 100 µM and 36.7 µM
GI50 (SK-MEL-28 melanoma): 17.8 µM
TGI (SK-MEL-28 melanoma): 42.4 µM and > 89.9 µM and > 54 µM

O=C(/C(=C\c1c(-c2ccccc2)[nH]c2ccccc12)S(=O)(=O)c1ccccc1)c1ccccc1
GI50 (NCI-H522 lung): 91.8 µM
TGI (NCI-H522 lung): > 100 µM
GI50 (CCRF-CEM leukemia): > 100 µM
TGI (CCRF-CEM leukemia): > 100 µM
GI50 (BT-549 breast): > 100 µM
TGI (BT-549 breast): > 100 µM
GI50 (PC-3 prostate): 4.96 µM
TGI (PC-3 prostate): > 100 µM
GI50 (SN12C renal): > 100 µM
TGI (SN12C renal): > 100 µM
GI50 (HL-60(TB) leukemia): 4.98 µM
TGI (HL-60(TB) leukemia): > 100 µM
GI50 (MALME-3M melanoma): > 100 µM
TGI (MALME-3M melanoma): > 100 µM
GI50 (K-562 leukemia): 6.53 µM
TGI (K-562 leukemia): > 100 µM
GI50 (HOP-92 NSCLC): 4.95 µM
TGI (HOP-92 NSCLC): > 100 µM
GI50 (SK-MEL-28 melanoma): > 100 µM
TGI (SK-MEL-28 melanoma): > 100 µM

Nc1cc(Br)c(-c2nnc(CCC(=O)c3nc4ccccc4[nH]3)o2)c(Br)c1
GI50 (NCI-H522 lung): 2.9 µM
TGI (NCI-H522 lung): 16.9 µM
GI50 (CCRF-CEM leukemia): 3.81 µM
TGI (CCRF-CEM leukemia): > 100 µM
GI50 (BT-549 breast): 6.82 µM
TGI (BT-549 breast): > 100 µM
GI50 (PC-3 prostate): 2.9 µM
TGI (PC-3 prostate): > 100 µM
GI50 (SN12C renal): 29.5 µM
TGI (SN12C renal): > 100 µM
GI50 (HL-60(TB) leukemia): 3.44 µM
TGI (HL-60(TB) leukemia): > 100 µM
GI50 (MALME-3M melanoma): 2.06 µM
TGI (MALME-3M melanoma): 17.2 µM
GI50 (K-562 leukemia): 2.89 µM
TGI (K-562 leukemia): > 100 µM
GI50 (HOP-92 NSCLC): 0.499 µM
TGI (HOP-92 NSCLC): 19.9 µM
GI50 (SK-MEL-28 melanoma): 6.31 µM
TGI (SK-MEL-28 melanoma): 79 µM

COc1cc2c(Nc3cc(Cl)c(OC)c(Cl)c3)c(C#N)cnc2cc1OCCCN1CCN(C)CC1
GI50 (NCI-H522 lung): 0.365 µM
TGI (NCI-H522 lung): 2.17 µM
GI50 (CCRF-CEM leukemia): 2.04 µM
TGI (CCRF-CEM leukemia): 10.8 µM
GI50 (BT-549 breast): 3.83 µM
TGI (BT-549 breast): 13.8 µM
GI50 (PC-3 prostate): 7.06 µM
TGI (PC-3 prostate): 20.6 µM
GI50 (SN12C renal): 0.95 µM
TGI (SN12C renal): 17.2 µM
GI50 (HL-60(TB) leukemia): 1.78 µM
TGI (HL-60(TB) leukemia): 4.03 µM
GI50 (MALME-3M melanoma): 1.6 µM
TGI (MALME-3M melanoma): 3.7 µM
GI50 (K-562 leukemia): 0.574 µM
TGI (K-562 leukemia): 8.41 µM
GI50 (HOP-92 NSCLC): 7.83 µM
TGI (HOP-92 NSCLC): 19.4 µM
GI50 (SK-MEL-28 melanoma): 1.97 µM
TGI (SK-MEL-28 melanoma): 4.53 µM

CC(C)(C)[Si](C)(C)OC1[C@@H](CNC(=O)NC(=O)CCl)O[C@@H](n2cnc3c(N)ncnc32)[C@H]1O[Si](C)(C)C(C)(C)C (some centres undefined)
GI50 (NCI-H522 lung): 0.718 µM
TGI (NCI-H522 lung): 1.61 µM
GI50 (CCRF-CEM leukemia): 0.121 µM
TGI (CCRF-CEM leukemia): 0.326 µM
GI50 (BT-549 breast): 0.869 µM
TGI (BT-549 breast): 1.73 µM
GI50 (PC-3 prostate): 0.942 µM
TGI (PC-3 prostate): 2.05 µM
GI50 (SN12C renal): 0.821 µM
TGI (SN12C renal): 1.88 µM
GI50 (HL-60(TB) leukemia): 0.893 µM
TGI (HL-60(TB) leukemia): 1.87 µM
GI50 (MALME-3M melanoma): 0.98 µM
TGI (MALME-3M melanoma): 1.96 µM
GI50 (K-562 leukemia): 1.23 µM
TGI (K-562 leukemia): 3.41 µM
GI50 (HOP-92 NSCLC): 0.885 µM
TGI (HOP-92 NSCLC): 1.86 µM
GI50 (SK-MEL-28 melanoma): 1.4 µM
TGI (SK-MEL-28 melanoma): 4.12 µM

CCN(CC)CCCCCCNc1cccc2cc(Br)cnc12
GI50 (NCI-H522 lung): 1.88 µM
TGI (NCI-H522 lung): 4.97 µM
GI50 (CCRF-CEM leukemia): 3.13 µM
TGI (CCRF-CEM leukemia): 11.2 µM
GI50 (BT-549 breast): 10.1 µM
TGI (BT-549 breast): 22.2 µM
GI50 (PC-3 prostate): 3.6 µM
TGI (PC-3 prostate): 17 µM
GI50 (SN12C renal): 5.92 µM
TGI (SN12C renal): 21 µM
GI50 (HL-60(TB) leukemia): 2 µM
TGI (HL-60(TB) leukemia): 4.65 µM
GI50 (MALME-3M melanoma): 2.46 µM
TGI (MALME-3M melanoma): 5.13 µM
GI50 (K-562 leukemia): 2.08 µM
TGI (K-562 leukemia): 5.59 µM
GI50 (HOP-92 NSCLC): 2.52 µM
TGI (HOP-92 NSCLC): 9.44 µM
GI50 (SK-MEL-28 melanoma): 2.82 µM
TGI (SK-MEL-28 melanoma): 6.76 µM

CC(C)[C@H](O)C(=O)N[C@@H](C)C(=O)N[C@@H]1C(=O)N(C)CCc2ccccc21
GI50 (NCI-H522 lung): > 100 µM
TGI (NCI-H522 lung): > 100 µM
GI50 (CCRF-CEM leukemia): > 100 µM
TGI (CCRF-CEM leukemia): > 100 µM
GI50 (BT-549 breast): > 100 µM
TGI (BT-549 breast): > 100 µM
GI50 (PC-3 prostate): > 100 µM
TGI (PC-3 prostate): > 100 µM
GI50 (SN12C renal): > 100 µM
TGI (SN12C renal): > 100 µM
GI50 (HL-60(TB) leukemia): > 100 µM
TGI (HL-60(TB) leukemia): > 100 µM
GI50 (MALME-3M melanoma): > 100 µM
TGI (MALME-3M melanoma): > 100 µM
GI50 (K-562 leukemia): > 100 µM
TGI (K-562 leukemia): > 100 µM
GI50 (HOP-92 NSCLC): > 100 µM
TGI (HOP-92 NSCLC): > 100 µM
GI50 (SK-MEL-28 melanoma): > 100 µM
TGI (SK-MEL-28 melanoma): > 100 µM

COc1ccc(C(CC(=O)c2ccc3c(c2)OCO3)c2c(O)c3ccccc3oc2=O)cc1OC (centres undefined)
TGI (NCI-H522 lung): > 100 µM
TGI (CCRF-CEM leukemia): > 100 µM
TGI (BT-549 breast): > 100 µM
TGI (PC-3 prostate): > 100 µM
TGI (SN12C renal): > 100 µM
TGI (HL-60(TB) leukemia): > 100 µM
TGI (MALME-3M melanoma): > 100 µM
TGI (K-562 leukemia): > 100 µM
TGI (HOP-92 NSCLC): > 100 µM
TGI (SK-MEL-28 melanoma): > 100 µM
